The target of one assay is hCA XII (Homo sapiens, UniProt O43570). Briefly: stopped-flow CO2 hydrase assay, hCA XII. The assay is classed as biochemical.
A further assay concerns the target hCA I (Homo sapiens, UniProt P00915). Kind of assay: stopped-flow CO2 hydrase assay, hCA I. The assay is classed as biochemical.
Another assay deals with hCA II (Homo sapiens, UniProt P00918). Briefly: stopped-flow CO2 hydrase assay, hCA II. Type of assay: biochemical.
A further assay concerns the target hCA IX (Homo sapiens, UniProt Q16790). Briefly: biochemical.

Chain of hCA XII (O43570 25-354): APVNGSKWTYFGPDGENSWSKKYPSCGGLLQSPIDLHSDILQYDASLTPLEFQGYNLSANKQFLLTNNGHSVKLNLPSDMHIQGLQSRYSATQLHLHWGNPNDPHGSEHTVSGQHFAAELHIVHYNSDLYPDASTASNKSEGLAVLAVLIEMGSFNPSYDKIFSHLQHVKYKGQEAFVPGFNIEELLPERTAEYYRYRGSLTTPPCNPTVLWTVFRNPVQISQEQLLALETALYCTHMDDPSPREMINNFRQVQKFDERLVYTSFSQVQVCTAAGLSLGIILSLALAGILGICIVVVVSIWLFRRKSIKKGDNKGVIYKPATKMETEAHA
Chain of hCA I (P00915 whole entry): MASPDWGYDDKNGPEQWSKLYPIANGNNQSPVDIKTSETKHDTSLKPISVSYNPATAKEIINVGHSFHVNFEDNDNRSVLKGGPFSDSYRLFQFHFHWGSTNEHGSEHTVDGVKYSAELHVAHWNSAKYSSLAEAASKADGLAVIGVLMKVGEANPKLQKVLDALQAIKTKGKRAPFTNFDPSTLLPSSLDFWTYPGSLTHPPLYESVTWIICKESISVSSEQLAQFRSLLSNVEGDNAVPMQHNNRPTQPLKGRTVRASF

What is called Ki is the dissociation constant of the complex between target and ligand, obtained from inhibition or displacement. Higher therefore signals weaker binding. Take `O=C(c1c(O)c2ccccc2oc1=O)N1CCN(S(=O)(=O)c2ccc(F)cc2)CC1` [16a, 3–(4-((4-Fluorophenyl)sulphonyl)piperazine-1-carbonyl)-4-hydroxy-2H-chromen-2-one]: the Ki is 92.2 µM on hCA XII, > 100 µM at hCA I, > 100 µM on hCA II and > 100 µM at hCA IX.

With `O=C(c1cc2ccc(O)cc2oc1=O)N1CCN(S(=O)(=O)c2ccccc2)CC1` [12b, 7-Hydroxy-3–(4-(phenylsulfonyl)piperazine-1-carbonyl)-2H-chromen-2-one], the Ki on hCA XII is 9.3 µM; on hCA I, > 100 µM; on hCA II it was > 100 µM; on hCA IX, > 100 µM.

On to `O=C(c1c(O)c2ccccc2oc1=O)N1CCN(S(=O)(=O)c2ccccc2)CC1` [16b, 4-Hydroxy-3–(4-(phenylsulfonyl)piperazine-1-carbonyl)-2H-chromen-2-one], for which the Ki on hCA XII is 9.5 µM; at hCA I, > 100 µM; on hCA II it was > 100 µM; on hCA IX, 90.9 µM.

As for `O=C(c1cc2ccccc2oc1=O)N1CCN(S(=O)(=O)c2ccc([N+](=O)[O-])cc2)CC1` [6a, 3–(4-((4-Nitrophenyl)sulphonyl)piperazine-1-carbonyl)-2H-chromen-2-one], the Ki at hCA XII was 9.1 µM; on hCA I, > 100 µM; on hCA II, > 100 µM; on hCA IX, 7.1 µM.

`O=C(c1cc2ccc(O)cc2oc1=O)N1CCN(S(=O)(=O)c2ccc(Br)s2)CC1` [12c, 3–(4-((5-Bromothiophen-2-yl)sulphonyl)piperazine-1-carbonyl)-7-hydroxy-2H-chromen-2-one]: the Ki at hCA XII was > 100 µM; on hCA I it was > 100 µM; at hCA II, > 100 µM; at hCA IX it was 50.7 µM.

Turning to `O=C(c1cc2ccccc2oc1=O)N1CCN(C(=S)Nc2ccccc2Cl)CC1` [7a, N-(2-chlorophenyl)-4–(2-oxo-2H-chromene-3-carbonyl)piperazine-1-carbothioamide], the Ki at hCA XII is 47.8 µM; on hCA I, > 100 µM; at hCA II it was > 100 µM; on hCA IX, 72 µM.

`O=C(c1cc2ccccc2oc1=O)N1CCN(S(=O)(=O)c2ccc(Br)s2)CC1` [6d, 3–(4-((5-Bromothiophen-2-yl)sulphonyl)piperazine-1-carbonyl)-2H-chromen-2-one]: the inhibition constant (Ki) on hCA XII was 9.8 µM; on hCA I, > 100 µM; at hCA II, > 100 µM; on hCA IX, 5.56 µM.

`O=C(c1c(O)c2ccccc2oc1=O)N1CCN(S(=O)(=O)c2ccc(Br)s2)CC1` [16c, 3–(4-((5-Bromothiophen-2-yl)sulphonyl)piperazine-1-carbonyl)-4-hydroxy-2H-chromene-2-one]: the Ki on hCA XII was 36.5 µM; on hCA I, > 100 µM; at hCA II it was > 100 µM; at hCA IX, > 100 µM.

For the molecule `O=C(c1cc2ccccc2oc1=O)N1CCN(S(=O)(=O)c2cccs2)CC1` [6c, 3–(4-(Thiophen-2-ylsulfonyl)piperazine-1-carbonyl)-2H-chromen-2-one], the Ki at hCA XII is 66.7 µM; at hCA I, > 100 µM; on hCA II it was > 100 µM.

Take `O=C(c1cc2ccccc2oc1=O)N1CCN(C(=S)Nc2ccc(Cl)cc2)CC1` [7b, N-(4-chlorophenyl)-4–(2-oxo-2H-chromene-3-carbonyl)piperazine-1-carbothioamide]: the Ki is 8 µM on hCA XII, > 100 µM on hCA I, > 100 µM at hCA II and 9.2 µM on hCA IX.

For the molecule `O=C(c1cc2ccc(O)cc2oc1=O)N1CCN(S(=O)(=O)c2ccc(F)cc2)CC1` [12a, 3–(4-((4-Fluorophenyl)sulphonyl)piperazine-1-carbonyl)-7-hydroxy-2H-chromen-2-one], the Ki is 86.6 µM on hCA XII, > 100 µM at hCA I, > 100 µM at hCA II and > 100 µM on hCA IX.

`CCS(=O)(=O)N1CCN(C(=O)c2cc3ccccc3oc2=O)CC1` [6e, 3–(4-(Ethylsulfonyl)piperazine-1-carbonyl)-2H-chromen-2-one]: the Ki is 26.1 µM on hCA XII, > 100 µM at hCA I, > 100 µM at hCA II and 37.8 µM on hCA IX.

For the molecule `O=C(c1cc2ccccc2oc1=O)N1CCN(C(=S)Nc2ccccc2)CC1` [7c, 4–(2-Oxo-2H-chromene-3-carbonyl)-N-phenylpiperazine-1-carbothioamide], the Ki on hCA XII is 31.8 µM; at hCA I, > 100 µM; at hCA II, > 100 µM.

As for `C/C(=N\OCc1ccc(Cl)cc1)c1cc2ccccc2oc1=O` [20b, (E)-3–(1-(((4-chlorobenzyl)oxy)imino)ethyl)-2H-chromen-2-one], the Ki was 9.4 µM at hCA XII, > 100 µM on hCA I, > 100 µM at hCA II and 8.9 µM at hCA IX.

As for `C/C(=N\OCc1ccc(F)cc1)c1cc2ccccc2oc1=O` [20a, (E)-3–(1-(((4-fluorobenzyl)oxy)imino)ethyl)-2H-chromen-2-one], the Ki on hCA I was > 100 µM; at hCA II, > 100 µM; on hCA IX, 62.1 µM.
